Measurements published in PubChem BioAssay AID1963826 (Molecular Pharmacology Branch, DTP, NCI, 2024).

Test system: 926638-142-R-J1-PDC complex spheroid viability
Experiment: Anticancer human tumor 926638-142-R-J1-PDC patient-derived endometrial carcinoma cell line growth inhibition [POLQ]
Details: for IC50: curve of first compound; for viability, T/C: stronger effect = lower value; active = viability on the fitted dose curve at most 10% of control; inactive = the rest
Procedure, shortened: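 Growth inhibition in 3D: complex spheroids (tumor PDC, HUVEC, MSC) treated with POLQ inhibitor combinations; where Cmax unknown, highest tested concentration 10 microM, except SN-38 at 1 microM.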

[1] = second compound 0.0316 µM, first compound 0.00316 µM
[2] = second compound 0.0316 µM, first compound 0.01 µM
[3] = second compound 0.0316 µM, first compound 0.0316 µM
[4] = second compound 0.0316 µM, first compound 0.1 µM
[5] = second compound 0.1 µM, first compound 0.00316 µM
[6] = second compound 0.1 µM, first compound 0.01 µM
[7] = second compound 0.1 µM, first compound 0.0316 µM
[8] = second compound 0.1 µM, first compound 0.1 µM
[9] = second compound 0.316 µM, first compound 0.00316 µM
[10] = second compound 0.316 µM, first compound 0.01 µM
[11] = second compound 0.316 µM, first compound 0.0316 µM
[12] = second compound 0.316 µM, first compound 0.1 µM
[13] = second compound 1 µM, first compound 0.00316 µM
[14] = second compound 1 µM, first compound 0.01 µM
[15] = second compound 1 µM, first compound 0.0316 µM
[16] = second compound 1 µM, first compound 0.1 µM
[17] = second compound 3.16 µM, first compound 0.00316 µM
[18] = second compound 3.16 µM, first compound 0.01 µM
[19] = second compound 3.16 µM, first compound 0.0316 µM
[20] = second compound 3.16 µM, first compound 0.1 µM
[21] = second compound 10 µM, first compound 0.00316 µM
[22] = second compound 10 µM, first compound 0.01 µM
[23] = second compound 10 µM, first compound 0.0316 µM
[24] = second compound 10 µM, first compound 0.1 µM
[25] = second compound 0.0316 µM, first compound 0.316 µM
[26] = second compound 0.0316 µM, first compound 1 µM
[27] = second compound 0.1 µM, first compound 0.316 µM
[28] = second compound 0.1 µM, first compound 1 µM
[29] = second compound 0.316 µM, first compound 0.316 µM
[30] = second compound 0.316 µM, first compound 1 µM
[31] = second compound 1 µM, first compound 0.316 µM
[32] = second compound 1 µM, first compound 1 µM
[33] = second compound 3.16 µM, first compound 0.316 µM
[34] = second compound 3.16 µM, first compound 1 µM
[35] = second compound 10 µM, first compound 0.316 µM
[36] = second compound 10 µM, first compound 1 µM
[37] = second compound 0.0316 µM, first compound 3.16 µM
[38] = second compound 0.0316 µM, first compound 10 µM
[39] = second compound 0.1 µM, first compound 3.16 µM
[40] = second compound 0.1 µM, first compound 10 µM
[41] = second compound 0.316 µM, first compound 3.16 µM
[42] = second compound 0.316 µM, first compound 10 µM
[43] = second compound 1 µM, first compound 3.16 µM
[44] = second compound 1 µM, first compound 10 µM
[45] = second compound 3.16 µM, first compound 3.16 µM
[46] = second compound 3.16 µM, first compound 10 µM
[47] = second compound 10 µM, first compound 3.16 µM
[48] = second compound 10 µM, first compound 10 µM
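Note: spheroids exposed to drugs for one week before readout.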
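Throughout, for viability, T/C: percent viability relative to DMSO vehicle control wells set as 100%.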

CC[C@@]1(O)C(=O)OCc2c1cc1n(c2=O)Cc2cc3c(CN(C)C)c(O)ccc3nc2-1 + Nc1ccc(C#CCN(C(=O)Cc2ncc(C(F)(F)F)cc2C(F)(F)F)c2ccc(F)cc2)nn1
inactive: viability, T/C (second compound 0.0316 µM, first compound 0.000316 µM) 105% | viability, T/C (second compound 0.0316 µM, first compound 0.001 µM) 96.1% | viability, T/C [1] 84% | viability, T/C [2] 73.4% | viability, T/C [3] 71.5% | viability, T/C [4] 46.6% | viability, T/C (second compound 0.1 µM, first compound 0.000316 µM) 112% | viability, T/C (second compound 0.1 µM, first compound 0.001 µM) 90% | viability, T/C [5] 81.6% | viability, T/C [6] 81.7% | viability, T/C [7] 69.2% | viability, T/C [8] 48.3% | viability, T/C (second compound 0.316 µM, first compound 0.000316 µM) 96.8% | viability, T/C (second compound 0.316 µM, first compound 0.001 µM) 109% | viability, T/C [9] 86.2% | viability, T/C [10] 66.6% | viability, T/C [11] 64.1% | viability, T/C [12] 56.3% | viability, T/C (second compound 1 µM, first compound 0.000316 µM) 100% | viability, T/C (second compound 1 µM, first compound 0.001 µM) 101% | viability, T/C [13] 89.6% | viability, T/C [14] 88.5% | viability, T/C [15] 71.2% | viability, T/C [16] 49.4% | viability, T/C (second compound 3.16 µM, first compound 0.000316 µM) 92.4% | viability, T/C (second compound 3.16 µM, first compound 0.001 µM) 92% | viability, T/C [17] 89.7% | viability, T/C [18] 78.6% | viability, T/C [19] 74.6% | viability, T/C [20] 48.1% | viability, T/C (second compound 10 µM, first compound 0.000316 µM) 91.2% | viability, T/C (second compound 10 µM, first compound 0.001 µM) 88.5% | viability, T/C [21] 80.2% | viability, T/C [22] 79.6% | viability, T/C [23] 65% | viability, T/C [24] 43.9%
0.0955 µM: IC50 (second compound 3.16 µM)
0.0976 µM: IC50 (second compound 1 µM)
> 0.1 µM: IC50 (second compound 0.0316 µM) | IC50 (second compound 0.1 µM) | IC50 (second compound 0.316 µM)
0.0731 µM: IC50 (second compound 10 µM)

CCc1c2c(nc3ccc(O)cc13)-c1cc3c(c(=O)n1C2)COC(=O)[C@]3(O)CC + Nc1ccc(C#CCN(C(=O)Cc2ncc(C(F)(F)F)cc2C(F)(F)F)c2ccc(F)cc2)nn1
active: viability, T/C [34] 7.92%
0.00814 µM: IC50 (second compound 0.0316 µM)
inactive: viability, T/C [1] 54.4% | viability, T/C [2] 52.5% | viability, T/C [3] 32.8% | viability, T/C [4] 27.6% | viability, T/C [25] 15.2% | viability, T/C [26] 11.2% | viability, T/C [5] 67.3% | viability, T/C [6] 49.8% | viability, T/C [7] 36.5% | viability, T/C [8] 24.9% | viability, T/C [27] 17.3% | viability, T/C [28] 10.2% | viability, T/C [9] 69.9% | viability, T/C [10] 56.9% | viability, T/C [11] 33.7% | viability, T/C [12] 24.6% | viability, T/C [29] 14.9% | viability, T/C [30] 10.4% | viability, T/C [13] 60% | viability, T/C [14] 53.9% | viability, T/C [15] 35.4% | viability, T/C [16] 24.6% | viability, T/C [31] 15.4% | viability, T/C [32] 10.5% | viability, T/C [17] 60.3% | viability, T/C [18] 46.7% | viability, T/C [19] 30.6% | viability, T/C [20] 20.6% | viability, T/C [33] 17.6% | viability, T/C [21] 64.2% | viability, T/C [22] 47.4% | viability, T/C [23] 34.5% | viability, T/C [24] 23.1% | viability, T/C [35] 15.3% | viability, T/C [36] 10.2%
0.0103 µM: IC50 (second compound 0.1 µM)
0.0116 µM: IC50 (second compound 1 µM)
0.0137 µM: IC50 (second compound 0.316 µM)
0.00856 µM: IC50 (second compound 10 µM)
0.00709 µM: IC50 (second compound 3.16 µM)

Nc1ccn(C2OC(CO)C(O)C2(F)F)c(=O)n1 (stereo not drawn) + Nc1ccc(C#CCN(C(=O)Cc2ncc(C(F)(F)F)cc2C(F)(F)F)c2ccc(F)cc2)nn1
0.948 µM: IC50 (second compound 0.316 µM)
inactive: viability, T/C [3] 76.5% | viability, T/C [4] 63.9% | viability, T/C [25] 57% | viability, T/C [26] 52.7% | viability, T/C [37] 43.9% | viability, T/C [38] 29.6% | viability, T/C [7] 96.8% | viability, T/C [8] 82.5% | viability, T/C [27] 49.4% | viability, T/C [28] 44.6% | viability, T/C [39] 49.9% | viability, T/C [40] 25.6% | viability, T/C [11] 91.2% | viability, T/C [12] 72% | viability, T/C [29] 61.8% | viability, T/C [30] 49.2% | viability, T/C [41] 40.8% | viability, T/C [42] 27% | viability, T/C [15] 81.8% | viability, T/C [16] 65.7% | viability, T/C [31] 51.1% | viability, T/C [32] 47.5% | viability, T/C [43] 49.6% | viability, T/C [44] 28.9% | viability, T/C [19] 80% | viability, T/C [20] 67.5% | viability, T/C [33] 49.9% | viability, T/C [34] 42.9% | viability, T/C [45] 44.6% | viability, T/C [46] 33.3% | viability, T/C [23] 79.6% | viability, T/C [24] 73.1% | viability, T/C [35] 66.3% | viability, T/C [36] 48% | viability, T/C [47] 55.4% | viability, T/C [48] 38.9%
2.4 µM: IC50 (second compound 10 µM)
0.682 µM: IC50 (second compound 0.1 µM)
1.06 µM: IC50 (second compound 0.0316 µM)
0.701 µM: IC50 (second compound 1 µM)
0.449 µM: IC50 (second compound 3.16 µM)

O=c1[nH]cc(F)c(=O)[nH]1 + Nc1ccc(C#CCN(C(=O)Cc2ncc(C(F)(F)F)cc2C(F)(F)F)c2ccc(F)cc2)nn1
> 10 µM: IC50 (second compound 0.0316 µM) | IC50 (second compound 0.1 µM) | IC50 (second compound 0.316 µM) | IC50 (second compound 1 µM) | IC50 (second compound 3.16 µM) | IC50 (second compound 10 µM)
inactive: viability, T/C [3] 101% | viability, T/C [4] 107% | viability, T/C [25] 92.8% | viability, T/C [26] 82.9% | viability, T/C [37] 86.5% | viability, T/C [38] 80.7% | viability, T/C [7] 100% | viability, T/C [8] 116% | viability, T/C [27] 107% | viability, T/C [28] 83.4% | viability, T/C [39] 90.8% | viability, T/C [40] 78.8% | viability, T/C [11] 85.5% | viability, T/C [12] 98.1% | viability, T/C [29] 102% | viability, T/C [30] 97.8% | viability, T/C [41] 85.5% | viability, T/C [42] 83% | viability, T/C [15] 103% | viability, T/C [16] 85% | viability, T/C [31] 99.4% | viability, T/C [32] 75.9% | viability, T/C [43] 77.7% | viability, T/C [44] 76.8% | viability, T/C [19] 97.7% | viability, T/C [20] 93.5% | viability, T/C [33] 88.1% | viability, T/C [34] 92.5% | viability, T/C [45] 82.1% | viability, T/C [46] 70.2% | viability, T/C [23] 102% | viability, T/C [24] 81% | viability, T/C [35] 93.2% | viability, T/C [36] 85.7% | viability, T/C [47] 78.2% | viability, T/C [48] 74.3%
